Active and inactive are the calls of the source.
Legend:
[1] = molecular target: T1, Intestinal-type alkaline phosphatase (Homo sapiens, UniProt P09923); test: activation of human intestinal alkaline phosphatase – biochemical, dose response (AID 488873); type: functional
[2] = molecular target: Large T antigen (Simian virus 40, UniProt P03070); type: functional, Betapolyomavirus macacae;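 further: Confirmatory-stage PubChem screen for compounds that inhibit SV40 T antigen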
[3] = molecular target: T2, Intestinal-type alkaline phosphatase (Mus musculus, UniProt P24822); test: mouse intestinal alkaline phosphatase activators, dose response, biochemical, luminescence, uHTS hits (AID 488783); type: functional
[4] = system: Vero; test: Vero cell cytotoxicity, cytotoxicity control for flavivirus capping enzyme inhibitors (AID 588742); type: functional; conditions: Chlorocebus sabaeus
[5] = molecular target: T3, Alkaline phosphatase, tissue-nonspecific isozyme (Homo sapiens, UniProt P05186); test: TNAP enzyme activators, dose response, selectivity assay for mouse IAP activator project, biochemical, TNAP isozyme, mouse IAP uHTS hits (AID 488880); type: functional
T3 sequence (P05186 whole entry): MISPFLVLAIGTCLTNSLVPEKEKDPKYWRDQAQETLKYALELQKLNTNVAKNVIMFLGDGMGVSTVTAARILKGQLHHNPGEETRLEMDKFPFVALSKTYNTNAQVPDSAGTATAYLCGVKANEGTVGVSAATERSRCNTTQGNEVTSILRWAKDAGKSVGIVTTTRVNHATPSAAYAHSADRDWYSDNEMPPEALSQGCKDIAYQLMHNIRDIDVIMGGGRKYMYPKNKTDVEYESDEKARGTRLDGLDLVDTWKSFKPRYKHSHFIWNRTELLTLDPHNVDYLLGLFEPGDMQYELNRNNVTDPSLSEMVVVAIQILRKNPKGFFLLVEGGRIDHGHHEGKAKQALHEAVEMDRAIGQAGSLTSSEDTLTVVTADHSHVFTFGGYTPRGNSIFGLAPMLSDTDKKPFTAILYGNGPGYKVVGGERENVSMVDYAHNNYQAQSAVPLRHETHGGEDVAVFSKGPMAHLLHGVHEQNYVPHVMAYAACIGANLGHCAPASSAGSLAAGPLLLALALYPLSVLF

[6] = system: Streptococcus; test: Group A Streptococcus viability loss, dose response, counter-screen for streptokinase expression inhibitor project, luminescence, BacTiterGlo (AID 1915); type: functional, organism-based;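 further: potency for reduction of bacterial viability or growth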
[7] = molecular target: T4, Kappa-type opioid receptor (Homo sapiens, UniProt P41145); type: functional
[8] = NIH-3T3 fibroblast cytotoxicity, dose response, cytotoxicity control, cell-based, fluorescence, Alamar Blue, secondary assay (AID 2327); type: functional;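 further: NIH-3T3 mouse fibroblasts cultured with fluconazole at 8 µg/mL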
[9] = molecular target: ATP-dependent molecular chaperone HSP82 (Candida albicans (strain WO-1) (Yeast), UniProt C4YTQ8); test: loss of DOC-induced GRE-beta-galactosidase reporter signal, dose response, Hsp90 inhibitor project, S. cerevisiae, luminescence (AID 2400); type: functional, cell-based;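 further: beta-galactosidase luminescence from glucocorticoid response element reporter as proxy for Hsp90 function; inhibitor potency where signal loss means Hsp90 inhibition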
[10] = C. albicans growth with fluconazole, confirmation, fluorescence, retest (AID 2467); type: functional, cell-based
[11] = system: HEK293; test: inhibitors of LMP1-driven NF-kB reporter, dose response, cell-based, HEK293, luciferase, cherry-pick (AID 588343); type: functional; conditions: Homo sapiens
[12] = molecular target: T4, Kappa-type opioid receptor; type: functional; remark: listed apart in the source
[13] = molecular target: T5, Delta-type opioid receptor (Homo sapiens, UniProt P41143); test: HTS Image-Based Screen for Agonists of the DOR Receptor. [Related pubchem assays (depositor defined):AID1777, AID1786, AID2133]; type: functional
[14] = molecular target: Mu-type opioid receptor (Homo sapiens, UniProt P35372); test: HTS Image-Based Screen for Agonists of the MOR Receptor. [Related pubchem assays (depositor defined):AID1777, AID1785, AID1786, AID2133]; type: functional;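 further: imaging of beta-arrestin GFP recruitment into spots after receptor activation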
[15] = molecular target: T5, Delta-type opioid receptor; test: HTS Image-Based Screen for Antagonists of the DOR Receptor. [Related pubchem assays (depositor defined):AID1777, AID1785, AID1786, AID2133]; type: functional
[16] = molecular target: Heat shock protein HSP 90-alpha (Homo sapiens, UniProt P07900); type: functional, organism-based
[17] = system: Streptococcus sp. 'group A'; test: growth inhibition of control SK(-) GAS strain, dose response, counter-screen for streptokinase expression inhibitor project, luminescence, kanamycin, BacTiterGlo, confirmation (AID 1900); type: functional, organism-based
[18] = molecular target: Beta-galactosidase (Escherichia coli, UniProt Q8VNN2); type: functional
[19] = molecular target: T6, Serine/threonine-protein phosphatase (Candida dubliniensis (strain CD36 / CBS 7987 / NCPF 3949 / NRRLY-17841) (Yeast), UniProt B9W6M3); test: calcineurin pathway inhibitors in yeast reporter, dose response, S. cerevisiae, CDRE-lacZ, luminescence, secondary (AID 2388); type: functional, cell-based;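 further: yeast reporter cells carrying a calcineurin-responsive lacZ construct stimulated with calcium chloride; luminescent beta-galactosidase reporter signal in whole cells rather than isolated phosphatase activity; potency for inhibition where a drop in reporter signal means calcineurin blockade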
T6 sequence (B9W6M3 whole entry): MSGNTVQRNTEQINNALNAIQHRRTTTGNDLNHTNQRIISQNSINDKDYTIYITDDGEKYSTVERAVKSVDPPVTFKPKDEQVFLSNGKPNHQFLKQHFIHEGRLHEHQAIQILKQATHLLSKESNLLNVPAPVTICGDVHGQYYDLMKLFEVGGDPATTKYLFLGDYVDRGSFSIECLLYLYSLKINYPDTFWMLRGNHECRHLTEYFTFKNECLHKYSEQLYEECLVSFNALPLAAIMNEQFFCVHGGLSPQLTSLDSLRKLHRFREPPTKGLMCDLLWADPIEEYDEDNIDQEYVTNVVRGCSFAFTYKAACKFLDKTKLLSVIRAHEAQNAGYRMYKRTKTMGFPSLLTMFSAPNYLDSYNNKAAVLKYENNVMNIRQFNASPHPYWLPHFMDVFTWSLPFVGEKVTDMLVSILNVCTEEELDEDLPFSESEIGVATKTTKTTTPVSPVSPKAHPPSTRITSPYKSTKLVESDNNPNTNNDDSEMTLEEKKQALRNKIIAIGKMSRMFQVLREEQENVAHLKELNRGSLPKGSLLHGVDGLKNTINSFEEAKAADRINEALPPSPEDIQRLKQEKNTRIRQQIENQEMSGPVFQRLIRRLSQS

[20] = growth induction of Burl-1 ts yeast mutant, dose response, counter-screen for SUMOylation pathway inhibitor project, whole organism, S. cerevisiae, luminescence (AID 463199); type: functional
[21] = molecular target: T7, Runt-related transcription factor 1/Core-binding factor subunit beta (Homo sapiens, UniProt Q01196+Q13951); test: Confirmation of compounds inhibiting the binding between the RUNX1 Runt domain and CBFb-SMMHC via a fluorescence resonance energy transfer (FRET) assay. [Related pubchem assays (depositor defined):AID1434, AID1438, AID1496, AID1550, AID1645]; type: protein assay
[22] = molecular target: T7, Runt-related transcription factor 1/Core-binding factor subunit beta; test: Confirmation of compounds inhibiting the binding between the RUNX1 Runt domain and CBFb-SMMHC via a time resolved fluorescence resonance energy transfer (TR-FRET) assay. [Related pubchem assays (depositor defined):AID1434, AID1438, AID1496, AID1560, AID1645]; type: protein assay
[23] = decrease of PhoP-driven GFP reporter signal, S. Typhimurium, dose response, PhoP regulon inhibitor project, purified and synthesized compounds, set 2 (AID 2831); type: functional
[24] = molecular target: T4, Kappa-type opioid receptor; test: SAR analysis of small molecule agonists of the kappa opioid receptor via a luminescent beta-arrestin assay - Set 3. [Related pubchem assays (depositor defined):AID1777, AID1785, AID1786, AID1966, AID2133, AID2136, AID2284, AID2500]; type: functional
[25] = molecular target: T8, Mannose-6-phosphate isomerase (Homo sapiens, UniProt P34949); test: PMI enzyme inhibitors, confirmation, biochemical, fluorescence intensity (AID 1535)
T8 sequence (P34949 whole entry): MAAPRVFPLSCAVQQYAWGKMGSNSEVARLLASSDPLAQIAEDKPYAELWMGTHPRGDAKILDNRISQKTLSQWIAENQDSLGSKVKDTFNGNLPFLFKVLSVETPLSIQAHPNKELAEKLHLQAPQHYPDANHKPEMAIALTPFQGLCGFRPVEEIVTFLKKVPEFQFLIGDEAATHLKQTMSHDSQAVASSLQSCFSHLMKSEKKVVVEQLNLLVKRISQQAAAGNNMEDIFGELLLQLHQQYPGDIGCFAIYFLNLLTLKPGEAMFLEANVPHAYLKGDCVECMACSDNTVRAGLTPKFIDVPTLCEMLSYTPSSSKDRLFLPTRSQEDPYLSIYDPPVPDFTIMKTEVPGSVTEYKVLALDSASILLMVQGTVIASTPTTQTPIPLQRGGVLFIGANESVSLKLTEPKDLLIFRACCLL

[26] = molecular target: Phosphomannomutase 2 (Homo sapiens, UniProt O15305); test: Counter screen SAR assay for PMM2 inhibitors via a fluorescence intensity assay. [Related pubchem assays (depositor defined):AID1545, AID1574]
[27] = molecular target: Nuclear receptor ROR-alpha (Homo sapiens, UniProt P35398); test: ROR modulator nuclear receptor reporter panel, late-stage follow-up, ROR modulator project, cell-based, luciferase reporter, panel member RORA (AID 2117)
[28] = molecular target: Nuclear receptor ROR-gamma (Homo sapiens, UniProt P51449); test: ROR modulator nuclear receptor reporter panel, late-stage follow-up, ROR modulator project, cell-based, luciferase reporter, panel member RORG (AID 2117)
[29] = molecular target: T3, Alkaline phosphatase, tissue-nonspecific isozyme; test: TNAP enzyme inhibition by screening hits, dose response, selectivity assay for mouse IAP inhibitor project, biochemical, human TNAP, uHTS hits (AID 488906); type: functional
[30] = molecular target: T1, Intestinal-type alkaline phosphatase; test: inhibition of human intestinal alkaline phosphatase – biochemical, dose response (AID 488876); type: functional
[31] = molecular target: T2, Intestinal-type alkaline phosphatase; test: PubChem AID 488785; type: functional
[32] = cells; type: functional, cell-based
[33] = cells; type: functional, cell-based; remark: listed apart in the source
[34] = molecular target: T9, SUMO-activating enzyme (Homo sapiens, UniProt Q9UBT2); test: inhibitors of in vitro SUMOylation cascade, primary screen, biochemical, HTRF, uHTS (AID 2006); type: protein-complex assay
[35] = molecular target: T9, SUMO-activating enzyme; test: SUMOylation inhibitor hit validation, confirmation, SUMOylation inhibitor project, biochemical, AlphaScreen (AID 2018); type: functional
[36] = molecular target: Albumin (Bos taurus, UniProt P02769); test: Counterscreen for inhibitors of T-cell receptor (TCR)-CD3 interaction: Fluorescence-based biochemical high throughput dose response assay to identify inhibitors of T-cell receptor (TCR)-CD3 interaction using a TAMRA-labeled BSA probe.; type: functional
[37] = cells; type: functional, cell-based; conditions: HEK-CNG
[38] = molecular target: Galanin receptor type 3 (Homo sapiens, UniProt O60755); test: Fluorescence-based cell-based primary high throughput dose response assay to identify antagonists of the Galanin Receptor 3 (GalR3).; type: functional

T4 sequence (P41145 whole entry): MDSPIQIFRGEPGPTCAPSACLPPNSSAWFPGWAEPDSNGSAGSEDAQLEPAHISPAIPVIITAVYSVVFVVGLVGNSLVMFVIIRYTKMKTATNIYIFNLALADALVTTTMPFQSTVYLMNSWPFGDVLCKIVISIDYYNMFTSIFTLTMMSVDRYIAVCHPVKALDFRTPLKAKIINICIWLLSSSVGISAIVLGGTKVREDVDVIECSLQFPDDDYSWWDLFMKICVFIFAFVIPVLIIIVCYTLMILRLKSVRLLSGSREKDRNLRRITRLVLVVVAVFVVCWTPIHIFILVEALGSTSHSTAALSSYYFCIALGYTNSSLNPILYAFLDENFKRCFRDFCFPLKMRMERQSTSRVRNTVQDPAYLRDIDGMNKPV
T1 sequence (P09923 whole entry): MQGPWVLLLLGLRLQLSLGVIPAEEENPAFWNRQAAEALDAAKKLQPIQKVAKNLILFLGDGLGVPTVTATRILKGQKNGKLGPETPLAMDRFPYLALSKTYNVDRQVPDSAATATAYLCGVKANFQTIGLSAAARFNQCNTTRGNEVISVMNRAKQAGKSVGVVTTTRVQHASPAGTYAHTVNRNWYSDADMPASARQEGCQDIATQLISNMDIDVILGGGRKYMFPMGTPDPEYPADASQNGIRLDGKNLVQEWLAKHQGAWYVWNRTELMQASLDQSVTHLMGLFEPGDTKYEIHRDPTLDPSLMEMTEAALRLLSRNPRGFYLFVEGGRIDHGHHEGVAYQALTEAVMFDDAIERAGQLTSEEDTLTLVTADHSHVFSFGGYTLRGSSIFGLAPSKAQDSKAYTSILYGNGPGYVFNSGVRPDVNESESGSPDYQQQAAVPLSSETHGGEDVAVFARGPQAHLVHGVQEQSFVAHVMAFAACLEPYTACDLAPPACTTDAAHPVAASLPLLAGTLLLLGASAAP
T7 sequence (Q01196 whole entry, the tested form may be a part): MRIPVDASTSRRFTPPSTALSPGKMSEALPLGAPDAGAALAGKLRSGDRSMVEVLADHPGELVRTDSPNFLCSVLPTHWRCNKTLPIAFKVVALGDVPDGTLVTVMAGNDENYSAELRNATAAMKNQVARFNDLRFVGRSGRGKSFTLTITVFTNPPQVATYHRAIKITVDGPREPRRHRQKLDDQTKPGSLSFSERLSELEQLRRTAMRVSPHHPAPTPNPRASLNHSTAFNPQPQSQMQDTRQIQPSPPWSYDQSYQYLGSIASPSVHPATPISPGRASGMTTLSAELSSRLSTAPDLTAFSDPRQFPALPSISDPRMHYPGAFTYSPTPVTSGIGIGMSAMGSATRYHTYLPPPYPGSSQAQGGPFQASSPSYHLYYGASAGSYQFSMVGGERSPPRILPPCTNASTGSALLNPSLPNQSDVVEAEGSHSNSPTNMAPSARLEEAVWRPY
T7 sequence (Q13951 whole entry, the tested form may be a part): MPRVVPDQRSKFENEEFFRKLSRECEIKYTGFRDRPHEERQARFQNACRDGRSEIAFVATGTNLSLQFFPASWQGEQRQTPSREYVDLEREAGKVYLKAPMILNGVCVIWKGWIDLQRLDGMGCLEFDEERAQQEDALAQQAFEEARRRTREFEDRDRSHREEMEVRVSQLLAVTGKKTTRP
T5 sequence (P41143 whole entry): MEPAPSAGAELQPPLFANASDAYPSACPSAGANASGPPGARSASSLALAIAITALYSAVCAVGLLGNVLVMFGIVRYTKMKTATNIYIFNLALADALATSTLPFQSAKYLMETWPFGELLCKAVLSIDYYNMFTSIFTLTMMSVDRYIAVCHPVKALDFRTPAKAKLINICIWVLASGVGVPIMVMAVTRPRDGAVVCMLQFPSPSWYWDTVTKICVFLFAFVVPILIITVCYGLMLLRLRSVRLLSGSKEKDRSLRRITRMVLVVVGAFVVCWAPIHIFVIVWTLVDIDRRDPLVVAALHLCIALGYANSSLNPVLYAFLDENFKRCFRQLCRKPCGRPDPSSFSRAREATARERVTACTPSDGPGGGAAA
T9 sequence (Q9UBE0 whole entry): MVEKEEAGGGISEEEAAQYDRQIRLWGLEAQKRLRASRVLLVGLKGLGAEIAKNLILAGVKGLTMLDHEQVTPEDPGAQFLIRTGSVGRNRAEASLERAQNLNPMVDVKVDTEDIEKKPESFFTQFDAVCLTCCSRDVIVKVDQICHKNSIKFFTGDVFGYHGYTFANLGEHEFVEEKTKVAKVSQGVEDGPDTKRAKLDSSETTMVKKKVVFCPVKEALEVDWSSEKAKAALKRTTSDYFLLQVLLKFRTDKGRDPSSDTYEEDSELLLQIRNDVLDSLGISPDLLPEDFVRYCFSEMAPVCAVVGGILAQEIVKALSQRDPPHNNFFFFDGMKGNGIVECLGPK
T9 sequence (Q9UBT2 whole entry): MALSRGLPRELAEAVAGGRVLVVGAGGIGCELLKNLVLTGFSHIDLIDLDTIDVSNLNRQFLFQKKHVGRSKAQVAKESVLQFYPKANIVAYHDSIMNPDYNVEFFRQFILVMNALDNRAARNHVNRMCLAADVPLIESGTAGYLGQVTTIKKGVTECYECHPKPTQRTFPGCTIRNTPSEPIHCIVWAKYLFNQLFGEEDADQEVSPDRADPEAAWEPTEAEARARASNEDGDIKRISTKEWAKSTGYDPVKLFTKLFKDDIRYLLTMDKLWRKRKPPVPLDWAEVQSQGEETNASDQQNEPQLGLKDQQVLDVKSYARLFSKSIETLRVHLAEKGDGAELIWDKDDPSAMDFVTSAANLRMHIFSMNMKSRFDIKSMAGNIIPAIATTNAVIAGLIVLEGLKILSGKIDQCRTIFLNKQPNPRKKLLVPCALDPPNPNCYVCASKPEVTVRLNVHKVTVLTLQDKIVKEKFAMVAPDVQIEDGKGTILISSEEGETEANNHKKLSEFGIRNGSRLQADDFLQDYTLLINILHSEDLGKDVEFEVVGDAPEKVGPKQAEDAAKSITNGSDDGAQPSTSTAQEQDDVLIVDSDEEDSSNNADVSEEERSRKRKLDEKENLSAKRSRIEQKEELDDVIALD
T2 sequence (P24822 whole entry): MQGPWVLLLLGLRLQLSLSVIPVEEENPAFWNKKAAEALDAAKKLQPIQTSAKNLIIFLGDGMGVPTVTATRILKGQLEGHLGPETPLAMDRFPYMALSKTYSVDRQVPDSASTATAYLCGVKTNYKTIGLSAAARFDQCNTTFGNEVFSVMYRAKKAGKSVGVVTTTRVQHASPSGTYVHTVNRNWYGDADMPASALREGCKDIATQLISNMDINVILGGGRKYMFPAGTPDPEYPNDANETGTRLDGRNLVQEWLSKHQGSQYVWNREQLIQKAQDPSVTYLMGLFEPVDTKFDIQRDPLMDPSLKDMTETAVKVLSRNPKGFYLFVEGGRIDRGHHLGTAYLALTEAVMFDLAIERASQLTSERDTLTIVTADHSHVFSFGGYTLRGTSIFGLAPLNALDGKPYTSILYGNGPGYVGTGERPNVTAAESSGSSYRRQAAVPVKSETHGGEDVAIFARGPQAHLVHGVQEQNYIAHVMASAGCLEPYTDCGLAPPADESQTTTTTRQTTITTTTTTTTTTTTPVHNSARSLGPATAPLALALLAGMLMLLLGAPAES
Mu-type opioid receptor, sequence (P35372 whole entry): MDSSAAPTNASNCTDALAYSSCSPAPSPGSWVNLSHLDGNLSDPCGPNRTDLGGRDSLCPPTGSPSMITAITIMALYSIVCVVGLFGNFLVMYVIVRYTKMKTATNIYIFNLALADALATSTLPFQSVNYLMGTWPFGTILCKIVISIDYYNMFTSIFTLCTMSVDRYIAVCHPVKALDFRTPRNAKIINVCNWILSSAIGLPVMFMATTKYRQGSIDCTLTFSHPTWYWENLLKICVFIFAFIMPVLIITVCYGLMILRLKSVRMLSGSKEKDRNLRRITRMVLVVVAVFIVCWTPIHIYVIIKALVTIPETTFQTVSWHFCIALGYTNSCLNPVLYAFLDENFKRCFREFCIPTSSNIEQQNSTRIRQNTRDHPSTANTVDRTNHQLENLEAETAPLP
Nuclear receptor ROR-alpha, sequence (P35398 whole entry): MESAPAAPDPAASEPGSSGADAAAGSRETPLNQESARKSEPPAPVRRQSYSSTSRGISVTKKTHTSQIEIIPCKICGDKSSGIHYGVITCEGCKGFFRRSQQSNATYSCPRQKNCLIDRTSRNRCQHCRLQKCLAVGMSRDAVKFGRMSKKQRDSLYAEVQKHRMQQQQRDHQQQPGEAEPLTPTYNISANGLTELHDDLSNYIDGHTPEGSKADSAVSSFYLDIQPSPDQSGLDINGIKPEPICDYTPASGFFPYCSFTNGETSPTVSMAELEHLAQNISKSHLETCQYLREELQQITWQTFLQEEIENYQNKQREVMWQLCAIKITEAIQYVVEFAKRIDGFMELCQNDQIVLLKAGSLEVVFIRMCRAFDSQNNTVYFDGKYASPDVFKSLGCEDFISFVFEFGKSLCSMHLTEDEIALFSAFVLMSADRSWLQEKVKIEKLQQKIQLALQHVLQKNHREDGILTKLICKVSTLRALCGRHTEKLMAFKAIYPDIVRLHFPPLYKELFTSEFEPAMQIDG
Nuclear receptor ROR-gamma, sequence (P51449 whole entry): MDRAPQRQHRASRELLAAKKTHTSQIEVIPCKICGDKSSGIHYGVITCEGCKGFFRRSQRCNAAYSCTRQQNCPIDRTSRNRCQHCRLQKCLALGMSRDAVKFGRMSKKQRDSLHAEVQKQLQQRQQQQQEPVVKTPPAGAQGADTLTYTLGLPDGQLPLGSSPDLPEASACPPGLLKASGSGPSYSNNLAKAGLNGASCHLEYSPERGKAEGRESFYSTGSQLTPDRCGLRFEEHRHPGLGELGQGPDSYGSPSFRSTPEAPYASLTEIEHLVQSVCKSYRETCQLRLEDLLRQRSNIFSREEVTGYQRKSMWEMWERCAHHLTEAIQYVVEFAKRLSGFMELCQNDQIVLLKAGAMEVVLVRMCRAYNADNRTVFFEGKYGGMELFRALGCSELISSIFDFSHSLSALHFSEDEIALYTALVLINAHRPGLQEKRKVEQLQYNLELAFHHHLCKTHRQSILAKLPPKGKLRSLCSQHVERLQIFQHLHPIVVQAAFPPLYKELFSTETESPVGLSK

SMILES: O=C(CN1C(=O)/C(=C/c2ccco2)SC1=S)NC1CCS(=O)(=O)C1 (stereo not drawn)
- EC50 [1]: > 100 µM (inactive)
- IC50 [2]: 85 µM (active)
- EC50 [3]: 2.03 µM (active)
- CC50 [4]: > 40 µM (active)
- EC50 [5]: > 100 µM (inactive)

SMILES: O=C(Nc1nnc(SCc2ccc(F)cc2)s1)c1ccccn1
- EC50 [6]: 2.54 µM (active)
- IC50 [7]: 4.45 µM (active)
- EC50 [8]: 74.7 µM (active)
- EC50 [9]: 4.97 µM (active)
- EC50 [10]: 1.42 µM (active)
- AC50 [11]: 1.97 µM (active)
- IC50 [12]: > 32 µM
- EC50 [13]: > 32 µM (inactive)
- EC50 [14]: > 32 µM (inactive)
- IC50 [15]: > 32 µM (inactive)
- AC50 [16]: 3.56 µM (active)
- EC50 [17]: 0.663 µM (active)
- EC50 [18]: > 31.5 µM (inactive)
- EC50 [19]: > 180 µM (inactive)

SMILES: O=C(CSc1nnc(NC(=O)CN2CCOCC2)s1)Nc1ccccc1
- AC50 [20]: 47.5 µM (active)

SMILES: Cc1cc(C=NNC(=O)Cn2c3ccccc3c(=O)c3ccccc32)c(C)n1-c1ccc(Cl)cc1
- IC50 [21]: 3.58 µM (active)
- IC50 [22]: 13.6 µM (active)

SMILES: O=C(Nc1ccc(Cl)cc1)N1CCCN(Cc2ccccc2F)C1
- IC50 [23]: > 125 µM (active)

SMILES: COc1ccc(Cn2c(SCc3ccccc3)nnc2-c2ccccn2)cc1
- EC50 [24]: > 20 µM (inactive)

SMILES: Nc1ccccc1/N=c1\ssnc1Cl
- IC50 [25]: 9.43 µM (active)
- IC50 [26]: > 100 µM (inactive)

SMILES: COc1cccc(S(=O)(=O)Nc2ccc(C(O)(C(F)(F)F)C(F)(F)F)cc2)c1
- IC50 [27]: 2.31 µM (active)
- IC50 [28]: 7.23 µM (active)

SMILES: COC(=O)C/C=N/NC1=NC(=O)/C(=C/C(=O)O)S1
- IC50 [29]: > 100 µM (inactive)
- IC50 [30]: 1.74 µM (active)
- IC50 [31]: 3.68 µM (active)

SMILES: C/C(=N\OCc1nc2ccccc2c(=O)n1/N=C/c1cc(C)cc([N+](=O)[O-])c1O)c1ccccc1
- EC50 [32]: > 350 µM (not active)
- EC50 [33]: 78 µM (active)
- IC50 [34]: 8.77 µM (active)
- IC50 [35]: 1.2 µM (active)
- IC50 [36]: > 94.1 µM (inactive)
- EC50 [37]: > 29.9 µM (inactive)
- IC50 [38]: 3.39 µM (active)

From ChEMBL document CHEMBL1201862, “PubChem BioAssay data set” (2004)
